Source: paper PMC13416357 (Molecules, 2026)
Like-named read-outs stand apart in the source and are kept apart here.

Columns and labels:
[1] = biological target: T1, Aβ (Homo sapiens, UniProt P05067); set-up: method as in PMID 40256311; settings: in vitro binding properties of lead M503-1619; cited from earlier work
T1 construct: from tissue; host or cells: Alzheimer disease (AD) brain tissue homogenate

[2] = biological target: T2, recombinant aSyn fibrils (Homo sapiens, UniProt P37840); set-up: method as in PMID 40256311; settings: in vitro binding properties of lead M503-1619; cited from earlier work
[3] = biological target: T2, recombinant aSyn fibrils; assay: In vitro radioligand binding assay with [^3H]BF2846 in recombinant aSyn fibrils
Method: The affinity of the target compounds for aSyn was performed in recombinant human fibrils using an in vitro radioligand binding assay with [^3H]BF2846 as the radioligand, which binds to site 9 in recombinant aSyn fibrils [16].
In vitro radioligand biding assays were performed by using the pervious published method [12, 15] to measure the affinity of the target compounds for aSyn and Aβ. In brief, the radioligand for the aSyn assay was [^3H]BF2846 and the assay was conducted using recombinant fibrils. Three concentrations of test compounds (10 nM, 100 nM and 1 µM) were incubated with ~4 nM [^3H]BF2846 and 50 nM aSyn fibrils in a working buffer (50 mM Tris-HCl, 0.01% bovine serum albumin) at 37 °C for 1.5 h. The mixture (150 µL) was separated by filtration through a Unifilter-96 system (PerkinElmer, Shelton, CT, USA) and washed with an ice-cold buffer (10 mM Tris-HCl (pH 7.4), 15 mM NaCl and 20% EtOH) before scintillation counting. Total binding was defined in the absence of competitor, and non-specific binding was determined using 100 nM unlabeled BF2846. […] Data from three independent experiments were analyzed by non-linear regression in GraphPad Prism v.9.3.1 (GraphPad Inc., San Diego, CA, USA) to calculate Ki values using the equation, Ki = EC50/(1 + [radioligand]/Kd).

T1 sequence (P05067 672-713 limits assumed): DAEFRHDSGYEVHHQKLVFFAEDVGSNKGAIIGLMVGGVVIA

SMILES: COc1ccc(NC(=O)c2cnc(N3CCN(c4ccccn4)CC3)nc2N)cc1 [Compound M503-1619]
- Ki [1]: 0.39 µM
- Ki [2]: 0.0065 µM

SMILES: COc1ccc(NC(=O)c2cnc(N3CCN(c4ncccn4)CC3)nc2N)cc1 [GT-9-40]
- Ki [3]: 41.9 ± 13.8 nM
